Earlier results, collected in US20140100282A1, “INTRANASAL ADMINISTRATION OF PHARMACEUTICAL AGENTS FOR TREATMENT OF NEUROLOGICAL DISEASES” (priority 2012, published 2014).
Read-outs that look alike come from different tables or passages of the source.

Tests used:
[1] = mouse, intravenous, autoradiography after 30 minutes
[2] = system: protein phosphatase 2A (PP2A); conditions: murine primary neurons from wild-type and human tau transgenic mice
[3] = system: tau; conditions: transgenic mice
[4] = system: amyloid beta; conditions: monotherapy at doses that lead to activation of AMPK
[5] = animal and humans
[6] = system: glioblastoma cells
[7] = intranasal

NCCc1c[nH]cn1 [histamine]
penetration into the brain or spinal cord through the BBB [1]: zero penetration

CN(C)C(=N)NC(=N)N [metformin]
PP2A activity [2]: induces PP2A activity | phosphorylation of Ser202 ([3]; 100 nM): decreased phosphorylation of Ser202 slightly | phosphorylation of Ser202 ([3]; 10 μM): significantly reduced | generation of amyloid beta species [4]: significantly increases | absorption from the blood to the brain [5]: negligible | migration of glioblastoma cells [6]: significantly inhibited | growth of glioblastoma cells ([6]; basal and leptin-stimulated): reduced basal and leptin-stimulated growth of glioblastoma cells in a dose-dependent manner

insulin: intranasal insulin (20 and 40 IU)
cognition on Alzheimer Disease's Assessment Scale-cognitive subscale ([7]; 20 and 40 IU, compared with placebo): less decline in cognition | recall of episodic memories ([7]; 20 or 40 IU for 4 months, relative to placebo): improved recall of episodic memories | brain glucose uptake and utilization ([7]; over the 4-month period, compared with placebo): reduced decline in brain glucose uptake and utilization
